Reference: the supplement of paper PMC10307832

Legend:
Experiment in all cases: relative viability (nuclei count vs DMSO), 5 days (fraction); higher = more cells survive
TGX 221 + Bortezomib = compound: CC1=CN2C(=O)C=C(N=C2C(=C1)C(C)NC3=CC=CC=C3)N4CCOCC4 [TGX 221] + CC(C)C[C@H](NC(=O)[C@H](Cc1ccccc1)NC(=O)c1cnccn1)B(O)O [Bortezomib] (partner 0.002 µM)
Procedure, shortened: (§1)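 Lung cancer cell lines in 1536-well plates were dosed by pin tool the day after seeding, either with one drug alone or with a fixed anchor-drug dose plus five library-drug doses (not always all listed) in √10 steps. After 5 days, cells were fixed and their nuclei stained in one step (final 0.05% Triton X-100, 1% formaldehyde, 1 ug/ml Hoechst), then counted on 4× images. Relative viability is the nuclei count in treated wells divided by that in vehicle wells. Values are medians of duplicate plates.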

TGX 221 + Tozasertib = compound: CC1=CN2C(=O)C=C(N=C2C(=C1)C(C)NC3=CC=CC=C3)N4CCOCC4 [TGX 221] + Cc1cc(Nc2cc(N3CCN(C)CC3)nc(Sc3ccc(NC(=O)C4CC4)cc3)n2)n[nH]1 [Tozasertib] (partner 0.1 µM)
Procedure, shortened: as §1

[1] = compound: O=C(CCCCCCNC(=O)c1cnc(N(c2ccccc2)c2ccccc2)nc1)NO [Ricolinostat] + CC1(C)CCC(c2ccc(Cl)cc2)=C(CN2CCN(c3ccc(C(=O)NS(=O)(=O)c4ccc(N[C@H](CCN5CCOCC5)CSc5ccccc5)c(S(=O)(=O)C(F)(F)F)c4)cc3)CC2)C1 [Navitoclax] (partner 0.5 µM)
Procedure, shortened: as §1

[2] = compound: O=C(CCCCCCNC(=O)c1cnc(N(c2ccccc2)c2ccccc2)nc1)NO [Ricolinostat] + Nc1nc2[nH]cc(CCc3ccc(C(=O)N[C@@H](CCC(=O)O)C(=O)O)cc3)c2c(=O)[nH]1 [Pemetrexed] (partner 0.2 µM)
Procedure, shortened: as §1

| Cell Line | relative viability (TGX 221 + Bortezomib; first compound 0.253 µM) | relative viability (TGX 221 + Bortezomib; first compound 0.8 µM) | relative viability (TGX 221 + Bortezomib; first compound 2.53 µM) | relative viability (TGX 221 + Bortezomib; first compound 8 µM) | relative viability (TGX 221 + Tozasertib; first compound 0.08 µM) | relative viability (TGX 221 + Tozasertib; first compound 0.253 µM) | relative viability (TGX 221 + Tozasertib; first compound 0.8 µM) | relative viability (TGX 221 + Tozasertib; first compound 2.53 µM) | relative viability (TGX 221 + Tozasertib; first compound 8 µM) | relative viability ([1]; first compound 0.08 µM) | relative viability ([1]; first compound 0.253 µM) | relative viability ([1]; first compound 0.8 µM) | relative viability ([1]; first compound 2.53 µM) | relative viability ([2]; first compound 0.08 µM) | relative viability ([2]; first compound 0.253 µM) | relative viability ([2]; first compound 0.8 µM) | relative viability ([2]; first compound 2.53 µM) | relative viability (TGX 221 + Bortezomib; first compound 0.08 µM) |
| --- | --- | --- | --- | --- | --- | --- | --- | --- | --- | --- | --- | --- | --- | --- | --- | --- | --- | --- |
| 201T | 1.15 | 1.08 | 1.05 | 0.996 | 0.915 | 0.933 | 0.955 | 0.833 | 0.808 | 1.21 | 1.16 | 1.23 | 1.24 | 0.339 | 0.314 | 0.334 | 0.311 |  |
| A549 |  |  |  |  |  |  |  |  |  | 1.07 | 1.18 | 1.1 | 1.21 |  |  |  |  |  |
| A-427 | 0.99 | 0.965 | 0.942 | 0.993 | 0.194 | 0.213 | 0.211 | 0.197 | 0.208 | 0.861 | 0.906 | 0.89 | 0.754 | 0.711 | 0.941 | 0.828 | 0.832 | 0.954 |
| ABC-1 | 0.243 | 0.348 | 0.315 | 0.29 | 0.192 | 0.157 | 0.203 | 0.188 | 0.161 |  |  |  |  |  |  |  |  | 0.325 |
| BEN | 0.694 | 0.528 | 0.756 | 0.915 | 0.51 | 0.505 | 0.489 | 0.473 | 0.496 | 0.0553 | 0.084 | 0.0569 | 0.0652 | 0.589 | 0.88 | 0.667 | 0.518 | 0.773 |
| CAL-12T | 0.952 | 0.918 |  | 1.05 | 0.324 | 0.329 | 0.322 | 0.314 | 0.2 | 1.04 | 1.01 | 1.01 | 1.11 | 0.884 | 1.15 | 1.28 | 1.37 |  |
| COR-L23 | 0.964 | 0.928 | 1.06 | 1.01 | 0.168 | 0.222 | 0.187 | 0.164 | 0.179 | 0.943 | 1.07 | 0.978 | 0.511 | 0.199 | 0.212 | 0.188 | 0.17 | 0.876 |
| COR-L 105 | 0.816 | 1.01 | 0.698 | 0.736 | 0.412 | 0.418 | 0.309 | 0.395 | 0.323 | 0.688 | 0.833 | 0.828 | 0.722 | 0.901 | 1.08 | 1.2 | 1.24 | 0.832 |
| Calu-6 | 0.973 | 1.22 | 1 | 0.896 |  |  |  |  |  | 0.801 | 0.852 | 0.803 | 0.783 |  |  |  |  | 1.02 |
| ChaGo-K-1 | 1.02 | 1.02 | 0.984 | 1.16 | 0.22 | 0.202 | 0.216 | 0.219 | 0.191 | 1.11 | 1.11 | 0.888 | 0.953 | 0.253 | 0.255 | 0.262 | 0.27 | 0.866 |
| EBC-1 | 0.51 | 0.619 | 0.4 | 0.408 |  |  |  |  |  | 0.375 | 0.358 | 0.304 | 0.172 |  |  |  |  | 0.523 |
